Test results as given in patent US20100120679A1, “Targeting NBS1-ATM Interaction To Sensitize Cancer Cells To Radiotherapy And Chemotherapy” (SOUTHERN RESEARCH INSTITUTE, priority 2006, published 2010).
Ends that are not written are not given here. Peptide text beside a SMILES is read from it. * marks the point of attachment. Biotin = O=C1N[C@H]2[C@H](CS[C@H]2CCCCC(=O)*)N1

How the values were obtained:
[1] = tested on: γ-H2AX foci in HeLa cells; assay: IR-induced γ-H2AX focus formation, HeLa; format: cell-based, human; conditions: 10 μM peptide, 30 minutes after 6Gy IR
Description: (§1) Error bars represent +/−1 SD, graphed are the mean of three independent experiments.
(§2) wtNIP Inhibits IR-Induced γ-H2AX and NBS1 pSer343 Focus Formation: One of the earliest responses to IR-induced DNA damage is the formation of γ-H2AX foci, which requires functional ATM (Burma et al., 2001; Furuta et al., 2003). […] Immunofluorescence microscopy was used to detect the presence of γ-H2AX foci in mock-irradiated or irradiated cells in the presence of R9, wtNIP or scNIP. […] Therefore, IR-induced γ-H2AX focus formation can be inhibited by wt-NIP.

[2] = tested on: NBS1 phosphorylation on serine 343 in HeLa cells; assay: IR-induced NBS1 pSer343 focus formation, HeLa; format: cell-based, human
Description: as §1
To further support the idea that wtNIP can inhibit ATM-mediated DNA damage pathways, IR-induced NBS1 focus formation, an event considered to be an ATM-dependent process at the sites of DSBs (Lim et al., 2000) was investigated. NBS1 foci are a result of ATM-mediated NBS1 phosphorylation on serine 343. […] The average number of foci in mock-irradiated HeLa cells was 6, 8, and 6 for R9, wtNIP, and scNIP, respectively.

[3] = tested on: γ-H2AX foci in DU-145 cells; assay: IR-induced γ-H2AX focus formation, DU-145; format: cell-based, human; conditions: 10 μM peptide, 6Gy
Description: as §1, §2

[4] = tested on: HeLa cells; assay: Peptide internalization by immunofluorescence microscopy (fluorescein-conjugated streptavidin); format: cell-based, human; conditions: 10 μM for 1 h
Experimental: First, the internalization of the peptides was evaluated. Cells treated with the peptide were probed with a fluorescein-conjugated streptavidin antibody to determine the presence of the biotinylated peptides.

[5] = tested on: HeLa cells; assay: Length of time the peptides remain in cells (degradation, immunofluorescence)
Experimental: HeLa cells were treated with 10 μM R9, wtNIP, or scNIP for one hour and harvested at indicated time points before they were analyzed by immunofluorescence microscopy staining with an […].
Immunofluorescence microscopy: Exponentially growing cultures of cells were plated on sterile, […] coverslips, and incubated for 24 hours at 37° C. in 5% CO2 humidified air before they are treated with the NIP peptides at room temperature. Coverslips were washed with PBS and fixed with 4% paraformaldehyde-0.25% Triton X-100 for 15 minutes at room temperature, blocked for 30 minutes at room temperature, and incubated with FITC-conjugated streptavidin or anti-γH2AX and phospho-NBS1 antibodies (Rockland Immunochemicals, Gilbertsville, Pa.) for 1 hour at room temperature. Coverslips were then mounted with Vectashield Elite (Vector Labs, Burlingame, Calif.) and observed with a Leica fluorescence microscope. Images were captured at 40× magnification using a Q Imaging Retiga Exi digital camera and analyzed with Image Pro-Plus 5.1 software.
Because the peptides would be used in radiation studies, the length of time the peptides remain in cells was determined to ensure that the peptides would be present throughout the DNA repair process after IR.

[6] = tested on: HeLa cells; assay: Colony formation assay (radiosensitivity), HeLa
Experimental: Shown in A (HeLa), C (MO59J) and D (GM9607) are the susvival curves after indicated doses of radiation. Error bars represent +/−1 SEM, graphed are the mean of three independent experiments.
Colony formation assays: To determine the radiosensitivity, the colony forming assay was incorporated. Cells were harvested with 0.125% trypsin-0.05% EDTA, pelleted and re-suspended in 1 ml fresh media with a 22 g needle to disperse clumps prior to hemocytometer counting in trypan blue. Cells were then plated at limiting dilutions in […] and allowed to adhere overnight. Cultures were treated with PBS, R9, wtNIP, or scNIP for 1 hour, and irradiated (0-6Gy). Fresh peptides were added every four hours until 24 hours after IR, when the medium was replaced with peptide-free medium. Cultures were incubated for 10-12 days, harvested and stained with 0.5% crystal violet in methanol. Colony number was determined with a dissecting microscope. A population of >50 cells was counted as one colony, and the number of colonies was expressed as a percentage of the value for untreated mock irradiated control cells. The surviving curves were plotted by linear regression analyses and the D0 value represents the radiation dose that leads to 37% of survival. To determine the radiosensitizing potential of the peptides in comparison to other small molecule inhibitors, the sensitizing enhancement ratio (SER) was calculated based on the dose of radiation required to reduce survival to 37% in the presence of scNIP or wtNIP. The following formula was used: […]
Statistics: To establish statistical significance, Student's t-test was incorporated. The data were first fit to each experimental group over a dose range of 0-6Gy. Significant differences were established at p<0.05.
FIG. 6A depicts the survival curves for HeLa cells treated with R9, wtNIP, or scNIP over a dose range of 0 to 6 Gy.

[7] = target: T1, NBS1-ATM interaction (Homo sapiens, UniProt Q13315); assay: Co-immunoprecipitation of ATM with NBS1 in peptide-treated cells; format: cell-based; conditions: HeLa cells, four hours after peptide treatment, unirradiated
T1 construct: endogenous in cells; host or cells: HeLa
Experimental: HeLa cells treated with the NIP peptides were irradiated (0 or 6Gy). Immunoprecipitation was performed with a rabbit NBS1 antibody, and Western blotting was performed with monoclonal antibodies against ATM, NBS1 or MRE11.
Immunoprecipitation and Western blotting: For co-immunoprecipitation of ATM, NBS1 and MRE11, cells were lysed 1 hour in ice-cold lysis buffer, which consisted of 10 mM Tris-HCl (pH 7.5), 100 mM NaCl, 5 mM EDTA, 0.5% NP-40, 5 mM Na3VO4, 1 mM NaF, and 1 mM PMSF. After centrifugation, supernatants were incubated with indicated antibodies. After extensive washing with the lysis buffer, immunoprecipitates were analyzed by immunoblot using specific antibodies. For western blotting analysis, samples (cell lysates or immunoprecipitates) were separated on 4-12% SDS-poly-acrylamide gels, transferred to nitrocellulose membranes, and probed with various antibodies.
wtNIP Abrogated the NBS1-ATM Interaction: To investigate whether R9-conjugated NIP peptides could inhibit NBS1-ATM interactions, coimmunoprecipitation experiments were performed in cells treated with the NIP peptides. Four hours after peptide treatment, HeLa cells were harvested and subjected to immunoprecipitation using an anti-NBS1 antibody. The immunoprecipitates were then blotted with anti-ATM, NBS1, and MRE11 antibodies.

[8] = tested on: Hela cells; conditions: cited from earlier work
[9] = target: ATM (human, UniProt Q13315 2-3056); assay: cell-based or functional assay
Sequence of ATM (Q13315 other isoform, or with tags, fused parts or gaps limits assumed): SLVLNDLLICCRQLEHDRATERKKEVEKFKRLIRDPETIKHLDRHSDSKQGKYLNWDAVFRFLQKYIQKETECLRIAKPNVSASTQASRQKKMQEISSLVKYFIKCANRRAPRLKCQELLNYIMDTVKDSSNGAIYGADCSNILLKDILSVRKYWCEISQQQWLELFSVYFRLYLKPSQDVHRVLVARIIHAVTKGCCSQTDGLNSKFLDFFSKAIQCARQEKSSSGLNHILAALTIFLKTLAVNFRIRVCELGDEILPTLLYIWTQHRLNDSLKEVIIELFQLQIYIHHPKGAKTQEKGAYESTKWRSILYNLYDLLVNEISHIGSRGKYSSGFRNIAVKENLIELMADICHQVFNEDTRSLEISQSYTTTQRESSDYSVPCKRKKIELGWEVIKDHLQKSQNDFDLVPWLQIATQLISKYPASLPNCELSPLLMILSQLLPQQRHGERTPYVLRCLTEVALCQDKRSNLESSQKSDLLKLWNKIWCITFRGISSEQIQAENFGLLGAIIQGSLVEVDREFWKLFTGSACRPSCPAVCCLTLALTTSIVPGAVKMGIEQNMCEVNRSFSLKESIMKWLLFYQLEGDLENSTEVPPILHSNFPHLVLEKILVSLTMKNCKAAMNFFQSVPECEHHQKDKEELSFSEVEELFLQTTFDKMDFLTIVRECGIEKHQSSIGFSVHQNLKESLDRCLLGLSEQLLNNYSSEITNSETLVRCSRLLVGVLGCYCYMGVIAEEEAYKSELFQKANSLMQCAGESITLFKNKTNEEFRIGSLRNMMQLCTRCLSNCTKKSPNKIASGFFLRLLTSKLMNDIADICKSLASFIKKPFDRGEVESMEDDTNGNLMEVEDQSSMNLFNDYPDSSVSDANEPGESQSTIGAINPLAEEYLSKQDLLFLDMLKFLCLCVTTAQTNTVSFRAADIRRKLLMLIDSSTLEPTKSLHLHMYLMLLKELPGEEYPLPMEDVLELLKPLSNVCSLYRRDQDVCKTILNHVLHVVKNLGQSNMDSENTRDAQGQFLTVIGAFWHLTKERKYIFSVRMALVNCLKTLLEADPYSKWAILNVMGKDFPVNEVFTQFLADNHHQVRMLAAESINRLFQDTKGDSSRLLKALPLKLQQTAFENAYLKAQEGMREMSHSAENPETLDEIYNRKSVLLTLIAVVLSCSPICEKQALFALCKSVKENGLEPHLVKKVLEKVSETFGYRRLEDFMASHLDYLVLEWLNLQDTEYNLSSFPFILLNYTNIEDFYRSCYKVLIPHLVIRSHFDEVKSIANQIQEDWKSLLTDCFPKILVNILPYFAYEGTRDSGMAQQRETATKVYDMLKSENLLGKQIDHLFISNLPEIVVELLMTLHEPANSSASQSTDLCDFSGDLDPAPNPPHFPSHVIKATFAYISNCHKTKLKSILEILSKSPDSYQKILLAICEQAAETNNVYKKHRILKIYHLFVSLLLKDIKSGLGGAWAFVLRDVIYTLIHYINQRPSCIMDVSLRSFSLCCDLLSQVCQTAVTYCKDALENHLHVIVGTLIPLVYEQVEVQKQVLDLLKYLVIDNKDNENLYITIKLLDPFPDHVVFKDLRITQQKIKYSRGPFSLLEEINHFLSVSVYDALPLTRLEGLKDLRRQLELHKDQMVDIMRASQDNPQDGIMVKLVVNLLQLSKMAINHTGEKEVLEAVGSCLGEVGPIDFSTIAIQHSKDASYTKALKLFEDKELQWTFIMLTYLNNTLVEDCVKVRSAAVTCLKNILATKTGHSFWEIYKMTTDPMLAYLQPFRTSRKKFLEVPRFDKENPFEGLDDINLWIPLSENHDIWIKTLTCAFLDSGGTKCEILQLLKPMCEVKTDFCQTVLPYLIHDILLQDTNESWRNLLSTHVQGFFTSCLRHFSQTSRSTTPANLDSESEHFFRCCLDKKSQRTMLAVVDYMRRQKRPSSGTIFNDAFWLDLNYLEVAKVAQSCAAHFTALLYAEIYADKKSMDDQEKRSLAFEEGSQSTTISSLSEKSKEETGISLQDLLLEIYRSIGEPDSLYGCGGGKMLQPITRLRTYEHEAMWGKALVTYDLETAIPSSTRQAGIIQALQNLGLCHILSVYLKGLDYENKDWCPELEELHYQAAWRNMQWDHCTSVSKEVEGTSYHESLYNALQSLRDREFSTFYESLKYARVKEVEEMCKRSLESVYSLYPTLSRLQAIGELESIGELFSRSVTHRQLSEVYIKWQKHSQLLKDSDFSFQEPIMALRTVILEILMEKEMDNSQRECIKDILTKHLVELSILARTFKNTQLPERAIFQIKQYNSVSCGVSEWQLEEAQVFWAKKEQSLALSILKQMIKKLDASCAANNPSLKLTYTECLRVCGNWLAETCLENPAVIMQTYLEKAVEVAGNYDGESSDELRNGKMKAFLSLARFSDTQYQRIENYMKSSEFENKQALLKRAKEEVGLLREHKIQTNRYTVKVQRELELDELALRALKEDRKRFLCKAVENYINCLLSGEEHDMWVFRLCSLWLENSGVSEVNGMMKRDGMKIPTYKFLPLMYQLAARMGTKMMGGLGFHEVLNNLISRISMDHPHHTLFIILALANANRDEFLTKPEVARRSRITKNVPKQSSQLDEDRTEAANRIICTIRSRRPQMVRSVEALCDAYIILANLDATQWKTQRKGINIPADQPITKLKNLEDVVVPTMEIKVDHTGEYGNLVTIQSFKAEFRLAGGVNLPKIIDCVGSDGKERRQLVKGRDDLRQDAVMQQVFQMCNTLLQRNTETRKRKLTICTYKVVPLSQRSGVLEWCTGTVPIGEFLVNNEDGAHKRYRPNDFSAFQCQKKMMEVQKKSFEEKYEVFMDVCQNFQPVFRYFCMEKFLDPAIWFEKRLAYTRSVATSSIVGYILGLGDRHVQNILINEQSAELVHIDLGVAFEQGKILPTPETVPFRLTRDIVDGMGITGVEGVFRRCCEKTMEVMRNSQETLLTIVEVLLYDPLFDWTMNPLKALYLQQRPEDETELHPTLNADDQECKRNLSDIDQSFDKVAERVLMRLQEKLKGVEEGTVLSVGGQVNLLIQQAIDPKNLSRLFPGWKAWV

CC(C)C[C@H](NC(=O)[C@H](CCC(=O)O)NC(=O)[C@H](CCC(=O)O)NC(=O)[C@H](CC(C)C)NC(=O)[C@H](CC(=O)O)NC(=O)[C@H](C)NC(=O)[C@H](CC(=O)O)NC(=O)[C@H](CO)NC(=O)[C@H](CCCNC(=N)N)NC(=O)[C@H](CCCNC(=N)N)NC(=O)[C@H](CCCNC(=N)N)NC(=O)[C@H](CCCNC(=N)N)NC(=O)[C@H](CCCNC(=N)N)NC(=O)[C@H](CCCNC(=N)N)NC(=O)[C@H](CCCNC(=N)N)NC(=O)[C@H](CCCNC(=N)N)NC(=O)[C@H](CCCNC(=N)N)NC(=O)CCCC[C@@H]1SC[C@@H]2NC(=O)N[C@@H]21)C(=O)N[C@@H](CCCCN)C(=O)O [scNIP] (Biotin-RRRRRRRRRSDADLEELK-OH)
average number of γ-H2AX foci/nucleus [1]: 41 foci/nucleus
NBS1 pSer343 foci per nucleus ([2]; HeLa cells after treatment with 6-Gy IR): 31 foci per nucleus
average number of NBS1 pSer343 foci ([2]; mock-irradiated HeLa cells): 6
IR-induced γ-H2AX focus formation [3]: did not affect IR-induced focus formation
cellular uptake of peptide [4]: significant cellular uptake of peptide
localization of internalized peptide [4]: cytoplasmic and nuclear compartments
fluorescent intensity levels of peptide in cells ([5]; 8 hours): much weaker
peptide staining in cells ([5]; 12 hours): much weaker cytoplasmic staining with no observed nuclear staining
peptide staining in cells ([5]; 24 hours): no detectable presence of the peptides
presence of peptides in cells ([5]; within 2 hours of treatment): strong distribution
fluorescent intensity levels of peptide in cells ([5]; within 4 hours): began to decrease
D0 (mean lethal dose required for 37% survival) [6]: 3.0
effect of peptide on clonogenic survival ([6]; 10 μM peptide): no significant difference between treatment groups
effect on radiosensitivity / IR-induced survival ([6]; dose range 0 to 6 Gy): Neither R9 nor scNIP affects radiosensitivity
ATM-NBS1 association (anti-NBS1 immunoprecipitation, anti-ATM blot) [7]: did not affect the NBS1-ATM interaction

O=c1cc(-c2cccc3c2Sc2ccccc2S3)oc(N2CCOCC2)c1 [KU55933]
radiosensitivity ([8]; Hela cells): significant increase in radiosensitivity
increase in sensitivity to etoposide [8]: ≤ 35.5 fold

Biotin-RRRRRRRRRKEESLADDLF [wild-type NBS1 inhibitory peptide (wtNIP)]
SER (sensitizing enhancement ratio), DU-145 [9]: 1.46
SER (sensitizing enhancement ratio), HeLa [9]: 1.58
SER (sensitizing enhancement ratio), M059J cells (defective DNA-PKcs) [9]: 1.83
sensitizer enhancement ratio at 2Gy, HeLa [9]: 1.66
sensitizer enhancement ratio at 4Gy, HeLa [9]: 2.61
sensitizer enhancement ratio at 6Gy, HeLa [9]: 3.12
